{"source": "patent US20210001143A1", "about": "“FOCAL PHOTODYNAMIC THERAPY METHODS” (STEBA MAOR SA, priority 2011, published 2021)", "key": {"[1]": {"system": "low risk organ-confined prostate cancer", "test": "Vascular-targeted photodynamic therapy (VTP), early treatment effect on 1 week MRI (lack of gadolinium uptake)", "type": "in vivo, human", "details": "4 mg/kg intravenously, light 200 J/cm, men", "experimental": "(§1) Men with low risk organ-confined prostate cancer (Gleason 3+3 on minimum 10 core TRUS biopsy) were recruited into two consecutive studies: PCM201 (a dose escalation study) or PCM203 (a confirmatory study). The vascular-targeted photodynamic therapy (“VTP”) procedure, carried out under general anesthesia, involved administration of TOOKAD® Soluble intravenously at 4 mg/kg, which was then activated by low power laser light delivered locally to the prostate via a brachytherapy-style transperineal template with a light density of 200 J/cm. Planned treatment volume (“PTV”, in mls) was determined by the location of tumor on biopsy and by MRI, and varied in volume from less than one lobe, to the whole prostate.\n(§2) The Light Density Index (“LDI”) was calculated as LDI=Σ(n)L/PTV, where Σ(n)L is the total length of all illuminating fibers (in cm), and PTV is the planned treatment volume, in mls.\n(§3) This was also correlated with the result of 6 month transrectal ultrasound (TRUS)-guided biopsy (positive or negative for any cancer).\n(§4) The correlation between LDI and the volume of tissue necrosis at day 7 and with the rate of negative biopsies at Month 6 was assessed in search of a threshold.\n(§5) 90 men were treated with a TOOKAD® Soluble dose of 4 mg/kg and a light dose of 200 J/cm in the two studies. Of these 89 were analyzable for LDI."}, "[2]": {"system": "low risk organ-confined prostate cancer", "test": "Vascular-targeted photodynamic therapy (VTP), 6 month TRUS-guided biopsy", "type": "in vivo, human", "details": "study PCM201, 4 mg/kg intravenously, light 200 J/cm, men", "experimental": "as §1, §2, §3, §4, §5"}}, "data": [{"substance": "Palladium 3^1-oxo-15-methoxycarbonylmethyl-rhodobacteriochlorin 13^1-(2-sulfoethyl) amide dipotassium salt [TOOKAD® Soluble]", "values": [{"measurement": "Treatment effect on 1 week MRI as % of PTV", "setting": "[1]; study PCM201, LDI < 1", "value": "59 (17) % of PTV"}, {"measurement": "Treatment effect on 1 week MRI as % of PTV", "setting": "[1]; study PCM201, LDI ≥ 1", "value": "95 (12) % of PTV"}, {"measurement": "Treatment effect on 1 week MRI as % of PTV", "setting": "[1]; study PCM203, LDI < 1", "value": "60 (22) % of PTV"}, {"measurement": "Treatment effect on 1 week MRI as % of PTV", "setting": "[1]; study PCM203, LDI ≥ 1", "value": "94 (28) % of PTV"}, {"measurement": "% of negative biopsies (6 months)", "setting": "[2]; LDI < 1", "value": "31 (4/17) %"}, {"measurement": "% of negative biopsies (6 months)", "setting": "[2]; LDI ≥ 1", "value": "83 (10/12) %"}]}]}
